Legend:
Assay type in all cases: in vivo
[1] = test system: barnyardgrass (Echinochloa crus-galli); test: Test A postemergence, visual injury rating; details: 0 is no effect, 100 is complete control; for Barnyardgrass plant response rating: 0 to 100 scale, approximately 10 days
How it was run: (§1)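 Visual injury scored 0–100 (100 = complete control) against untreated controls about 10 days after treatment in a greenhouse. Test chemicals, formulated with surfactant in non-phytotoxic solvent, were sprayed on soil preemergence or on 2-10 cm, one- to two-leaf plants postemergence.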

corn (Zea mays) = test: Test A postemergence, visual injury rating
How it was run: as §1

kochia (Kochia scoparia) [2] = test: Test A postemergence, visual injury rating
How it was run: as §1

[3] = test system: blackgrass (Alopecurus myosuroides); test: Test A postemergence, visual injury rating
How it was run: as §1

[4] = test system: giant foxtail (Setaria faberii); test: Test A postemergence, visual injury rating
How it was run: as §1

[5] = test system: Italian ryegrass (Lolium multiflorum); test: Test A postemergence, visual injury rating
How it was run: as §1

[6] = test system: ragweed (common ragweed, Ambrosia elatior); test: Test A postemergence, visual injury rating
How it was run: as §1

[7] = test system: pigweed (Amaranthus retroflexus); test: Test A postemergence, visual injury rating
How it was run: as §1

[8] = test system: galium (catchweed bedstraw, Galium aparine); test: Test A postemergence, visual injury rating
How it was run: as §1

[9] = test system: wheat (Triticum aestivum); test: Test A postemergence, visual injury rating
How it was run: as §1

[10] = test system: barnyardgrass (Echinochloa crus-galli); test: Test A preemergence, visual injury rating
How it was run: as §1

kochia (Kochia scoparia) [11] = test: Test A preemergence, visual injury rating
How it was run: as §1

[12] = test system: giant foxtail (Setaria faberii); test: Test A preemergence, visual injury rating
How it was run: as §1

[13] = test system: Italian ryegrass (Lolium multiflorum); test: Test A preemergence, visual injury rating
How it was run: as §1

[14] = test system: ragweed (common ragweed, Ambrosia elatior); test: Test A preemergence, visual injury rating
How it was run: as §1

[15] = test system: pigweed (Amaranthus retroflexus); test: Test A preemergence, visual injury rating
How it was run: as §1

[16] = test system: sedge, umbrella (small-flower umbrella sedge, Cyperus difformis); test: Test B flooded paddy test, plant response rating; details: 250 g ai/ha; Flood; scale of 0 to 100 where 0 is no effect and 100 is complete control; 13 to 15 days
How it was run: (§2)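 Visual injury ratings against untreated controls, taken 13 to 15 days after compound was added to paddy water standing 3 cm above the soil.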

[17] = test system: barnyardgrass (Echinochloa crus-galli); test: Test B flooded paddy test, plant response rating; details: 250 g ai/ha; Flood; scale of 0 to 100 where 0 is no effect and 100 is complete control; 13 to 15 days
How it was run: as §2

[18] = test system: ducksalad (Heteranthera limosa); test: Test B flooded paddy test, plant response rating; details: 250 g ai/ha; Flood; scale of 0 to 100 where 0 is no effect and 100 is complete control; 13 to 15 days
How it was run: as §2

rice (Oryza sativa) = test: Test B flooded paddy test, plant response rating; details: 250 g ai/ha; Flood; scale of 0 to 100 where 0 is no effect and 100 is complete control; 13 to 15 days
How it was run: as §2

[19] = 31 g ai/ha, 0 to 100 scale, 0 is no effect, 100 is complete control, approximately 10 days
[20] = 125 g ai/ha, 0 to 100 scale, 0 is no effect, 100 is complete control, approximately 10 days
[21] = 31 g ai/ha, 0 to 100 scale, 0 no effect, 100 complete control
[22] = 125 g ai/ha, 0 to 100 scale (0 no effect, 100 complete control)
[23] = 125 g ai/ha, 0 is no effect, 100 is complete control
[24] = 31 g ai/ha, 0 to 100 scale (0 no effect, 100 complete control)

SMILES | Barnyardgrass plant response rating ([1]; 31 g ai/ha) | Barnyardgrass plant response rating ([1]; 125 g ai/ha) | Corn plant response rating (corn (Zea mays); [19]) | Corn plant response rating (corn (Zea mays); [20]) | Kochia plant response rating (kochia (Kochia scoparia) [2]; [19]) | Kochia plant response rating (kochia (Kochia scoparia) [2]; [20]) | Ryegrass, Italian plant response rating [5, 20] | Ragweed plant response rating [6, 20] | Pigweed plant response rating [7, 20] | Wheat plant response rating [9, 20] | Plant response rating, Barnyardgrass [10, 21] | Plant response rating, Kochia (kochia (Kochia scoparia) [11]; [21]) | Plant response rating, Foxtail, Giant [12, 21] | Plant response rating, Ryegrass, Italian [13, 21] | Plant response rating, Ragweed [14, 21] | Plant response rating, Pigweed [15, 21] | Plant response rating, Sedge, Umbrella [16] | Plant response rating, Barnyardgrass [17] | Plant response rating, Ducksalad [18] | Plant response rating, Rice (rice (Oryza sativa)) | other results
O=C(OCCC(F)(F)F)c1c(OCC(F)(F)F)cccc1Oc1ncc(Cl)cn1 [Compound 117] | 0 | 10 | 10 | 10 | 20 | 50 | 0 | 20 | 70 | 0 | 0 | 0 | 0 | 0 | 0 | 0 | 60 | 0 | 20 | 0 | Blackgrass plant response rating [3, 19]: 0; Blackgrass plant response rating [3, 20]: 10; Foxtail, Giant plant response rating [4, 19]: 0; Foxtail, Giant plant response rating [4, 20]: 10; Ryegrass, Italian plant response rating [5, 19]: 0; Ragweed plant response rating [6, 19]: 0; Pigweed plant response rating [7, 19]: 30; Galium plant response rating [8, 19]: 60; Galium plant response rating [8, 20]: 100; Wheat plant response rating [9, 19]: 0; Plant response rating, Barnyardgrass [10, 22]: 0; Plant response rating, Kochia (kochia (Kochia scoparia) [11]; [22]): 0; Plant response rating, Foxtail, Giant [12, 22]: 20; Plant response rating, Ryegrass, Italian [13, 22]: 0; Plant response rating, Ragweed [14, 22]: 0; Plant response rating, Pigweed [15, 22]: 30
O=C(SCCC(F)(F)F)c1c(Br)cccc1Oc1ncc(Cl)cn1 [Compound 71] | 0 |  | 10 |  | 10 | 50 | 20 | 20 | 70 | 0 | 0 | 0 | 40 | 0 | 0 | 0 | 95 | 0 | 90 | 0 | Barnyardgrass plant response rating (0 to 100 scale) ([1]; 125 g ai/ha): 40; Corn plant response rating (0 to 100 scale) (corn (Zea mays); [23]): 20; Blackgrass plant response rating [3, 19]: 10; Blackgrass plant response rating (0 to 100 scale) [3, 23]: 30; Foxtail, Giant plant response rating [4, 19]: 10; Foxtail, Giant plant response rating (0 to 100 scale) [4, 23]: 40; Ryegrass, Italian plant response rating [5, 19]: 0; Ragweed plant response rating [6, 19]: 0; Pigweed plant response rating [7, 19]: 30; Galium plant response rating [8, 19]: 30; Galium plant response rating (0 to 100 scale) [8, 23]: 90; Wheat plant response rating [9, 19]: 0; Barnyardgrass plant response rating [10, 22]: 10; Kochia plant response rating (kochia (Kochia scoparia) [11]; [22]): 0; Foxtail, Giant plant response rating [12, 22]: 100; Ryegrass, Italian plant response rating [13, 22]: 0; Ragweed plant response rating [14, 22]: 0; Pigweed plant response rating [15, 22]: 40
O=C(NCCC(F)(F)F)c1c(Br)cccc1Oc1ncc(Cl)cn1 [Compound 93] | 0 | 0 | 0 | 0 | 0 | 0 | 0 | 0 | 0 | 0 | 0 | 0 | 0 | 0 | 0 | 0 | 0 | 0 | 0 | 0 | Blackgrass plant response rating [3, 19]: 0; Blackgrass plant response rating [3, 20]: 0; Foxtail, Giant plant response rating [4, 19]: 0; Foxtail, Giant plant response rating [4, 20]: 0; Ryegrass, Italian plant response rating [5, 19]: 0; Ragweed plant response rating [6, 19]: 0; Pigweed plant response rating [7, 19]: 0; Galium plant response rating [8, 19]: 0; Galium plant response rating [8, 20]: 0; Wheat plant response rating [9, 19]: 0; Barnyardgrass plant response rating [10, 22]: 0; Kochia plant response rating (kochia (Kochia scoparia) [11]; [22]): 0; Foxtail, Giant plant response rating [12, 22]: 0; Ryegrass, Italian plant response rating [13, 22]: 0; Ragweed plant response rating [14, 22]: 0; Pigweed plant response rating [15, 22]: 0
CCCCCC(C#N)c1ccccc1Oc1ncc(Cl)cn1 (stereo not drawn) [Compound 141, 2-[(5-chloro-2-pyrmidinyl)oxy]-α-pentylbenzeneacetonitrile] | 10 | 20 |  | 20 |  | 60 | 10 | 20 | 70 | 0 | 0 | 10 | 10 | 0 | 0 | 0 | 50 | 20 | 70 | 10 | Corn plant response rating (corn (Zea mays); [24]): 10; Kochia plant response rating (kochia (Kochia scoparia) [2]; [24]): 50; Blackgrass plant response rating [3, 24]: 0; Blackgrass plant response rating [3, 20]: 10; Foxtail, Giant plant response rating [4, 24]: 20; Foxtail, Giant plant response rating [4, 20]: 40; Ryegrass, Italian plant response rating [5, 24]: 0; Ragweed plant response rating [6, 24]: 0; Pigweed plant response rating [7, 24]: 40; Galium plant response rating [8, 24]: 40; Galium plant response rating [8, 20]: 60; Wheat plant response rating [9, 24]: 0; Plant response rating, Barnyardgrass [10, 22]: 60; Plant response rating, Kochia (kochia (Kochia scoparia) [11]; [22]): 20; Plant response rating, Foxtail, Giant [12, 22]: 100; Plant response rating, Ryegrass, Italian [13, 22]: 10; Plant response rating, Ragweed [14, 22]: 30; Plant response rating, Pigweed [15, 22]: 90
